{"source": "patent US10538547B2", "about": "“Mangiferin-6-O-calcium salt and preparation process thereof” (CHANGZHOU DEZE MEDICAL SCIENCE CO., LTD, priority 2016, dated 2020)", "key": {"[1]": {"assay": "Physicochemical properties: solubility of the mangiferin-6-O-calcium salt", "description": "The mangiferin-6-O-calcium salt has the following structural formula: […]"}, "[2]": {"assay": "Room temperature long-term stability test", "format": "physicochemical", "details": "for Content / Morphology: 25°C±2°C, 60% RH±5% RH, sealed aluminum plastic bag", "procedure": "(§1) Test method: A sample of the mangiferin-6-O-calcium salt raw material was sealingly packaged with an aluminum plastic composition bag, placed at 25° C.±2° C. and 60% RH±5% RH conditions, pieces of the sample were taken at the time of 0, 3, 6, 9 and 12 months and the morphology and content thereof were tested."}, "[3]": {"assay": "Acceleration test (accelerated stability)", "format": "physicochemical", "details": "for Content / Morphology: 40°C±2°C, 75% RH±5% RH, sealed aluminum plastic bag", "procedure": "as §1, with “40°” for “25°”, “75%” for “60%”, “3” for “3, 6, 9”, “6” for “12”"}}, "note": "Where a name gives a salt, the structure may show the parent alone."}
{"smiles": "O=c1c2cc(O)c(O)cc2oc2cc(O)c(C3OC(CO)C(O)C(O)C3O)c(O)c12", "note": "(stereo not drawn) [mangiferin-6-O-calcium salt]", "values": [{"measurement": "Solubility in diluted hydrochloric acid solution", "setting": "[1]; diluted hydrochloric acid solution", "result": "slightly soluble"}, {"measurement": "Solubility in hot water", "setting": "[1]; hot water", "result": "soluble"}, {"measurement": "Solubility in water", "setting": "[1]; water", "result": "slightly soluble"}, {"measurement": "Content", "setting": "[2]; batch 140618, 0 month", "result": 84.5, "unit": "%"}, {"measurement": "Morphology", "setting": "[2]; batch 140618, 0 month", "result": "Light yellow-green"}, {"measurement": "Content", "setting": "[2]; batch 140618, 3 months", "result": 84.5, "unit": "%"}, {"measurement": "Morphology", "setting": "[2]; batch 140618, 3 months", "result": "Light yellow-green"}, {"measurement": "Content", "setting": "[2]; batch 140618, 6 months", "result": 84.3, "unit": "%"}, {"measurement": "Morphology", "setting": "[2]; batch 140618, 6 months", "result": "Light yellow-"}, {"measurement": "Content", "setting": "[2]; batch 140618, 9 months", "result": 84.6, "unit": "%"}, {"measurement": "Morphology", "setting": "[2]; batch 140618, 9 months", "result": "Light yellow-"}, {"measurement": "Content", "setting": "[2]; batch 140618, 12 months", "result": 84.2, "unit": "%"}, {"measurement": "Morphology", "setting": "[2]; batch 140618, 12 months", "result": "Light yellow-"}, {"measurement": "Stability conclusion, room temperature", "setting": "[2]; room temperature condition for 12 months", "result": "stable properties"}, {"measurement": "Content", "setting": "[3]; batch 140618, 0 month", "result": 84.5, "unit": "%"}, {"measurement": "Morphology", "setting": "[3]; batch 140618, 0 month", "result": "Light yellow-"}, {"measurement": "Content", "setting": "[3]; batch 140618, 3 months", "result": 84.5, "unit": "%"}, {"measurement": "Morphology", "setting": "[3]; batch 140618, 3 months", "result": "Light yellow-"}, {"measurement": "Content", "setting": "[3]; batch 140618, 6 months", "result": 84.2, "unit": "%"}, {"measurement": "Morphology", "setting": "[3]; batch 140618, 6 months", "result": "Light yellow-"}, {"measurement": "Stability conclusion, acceleration test", "setting": "[3]; acceleration test condition for 6 months", "result": "stable properties"}]}
